Test: xn = mol fraction of the nth substance listed
Details: 101 kPa, Liquid; for viscosity: Capillary tube (Ostwald / Ubbelohde) method; for mass density: Vibrating tube method

NCCCO [3-amino-1-propanol] + CCCO
Details | mass density, 293.15 K [kg/m3] | mass density, 303.15 K [kg/m3] | mass density, 313.15 K [kg/m3] | mass density, 323.15 K [kg/m3] | mass density, 333.15 K [kg/m3] | viscosity, 293.15 K [mPa·s] | viscosity, 303.15 K [mPa·s] | viscosity, 313.15 K [mPa·s] | viscosity, 323.15 K [mPa·s] | viscosity, 333.15 K [mPa·s]
x1 = 0.1088 | 826.73 | 818.68 | 810.49 | 802.16 | 793.63 | 2.978 | 2.081 | 1.401 | 0.999 | 0.579
x1 = 0.2019 | 845.91 | 837.85 | 829.65 | 821.33 | 812.86 | 4.164 | 2.839 | 2.061 | 1.474 | –
x1 = 0.2993 | 865.53 | 857.43 | 849.23 | 840.93 | 832.49 | 5.873 | 3.89 | 2.864 | 2.11 | 1.266
x1 = 0.4099 | 886.82 | 878.7 | 870.51 | 862.22 | 853.84 | 8.435 | 5.443 | 3.97 | 2.95 | 1.828
x1 = 0.5002 | 903.78 | 895.67 | 887.49 | 879.21 | 870.85 | 11.26 | 7.04 | 5.05 | 3.657 | 2.352
x1 = 0.6014 | 922.34 | 914.25 | 906.08 | 897.8 | 889.48 | 15.35 | 9.477 | 6.59 | 4.685 | 3.105
x1 = 0.6995 | 939.59 | 931.51 | 923.4 | 915.21 | 907.01 | 20.08 | 12.29 | 8.276 | 5.816 | 3.907
x1 = 0.8091 | 958.11 | 950.09 | 942.03 | 933.93 | 925.77 | 26.44 | 15.93 | 10.5 | 7.232 | 4.917
x1 = 0.9003 | 972.64 | 964.64 | 956.59 | 948.49 | 940.36 | 32.71 | 19.52 | 12.63 | 8.57 | 5.829

CC(C)CO [2-methyl-1-propanol] + CC(C)O
Details | mass density, 293.15 K [kg/m3] | mass density, 303.15 K [kg/m3] | mass density, 313.15 K [kg/m3] | mass density, 323.15 K [kg/m3] | mass density, 333.15 K [kg/m3] | viscosity, 293.15 K [mPa·s] | viscosity, 303.15 K [mPa·s] | viscosity, 313.15 K [mPa·s] | viscosity, 323.15 K [mPa·s] | viscosity, 333.15 K [mPa·s]
x1 = 0.1495 | 788.29 | 779.93 | 771.29 | 762.29 | 752.87 | 2.45 | 1.817 | 1.259 | 0.983 | 0.648
x1 = 0.2001 | 789.25 | 780.93 | 772.34 | 763.4 | 754.05 | 2.498 | 1.839 | 1.28 | 0.999 | 0.663
x1 = 0.3 | 791.09 | 782.85 | 774.35 | 765.53 | 756.31 | 2.621 | 1.907 | 1.331 | 1.035 | 0.696
x1 = 0.4249 | 793.26 | 785.12 | 776.74 | 768.04 | 758.97 | 2.81 | 2.021 | 1.418 | 1.095 | 0.745
x1 = 0.5189 | 794.8 | 786.73 | 778.43 | 769.83 | 760.87 | 2.976 | 2.131 | 1.505 | 1.158 | 0.794
x1 = 0.6202 | 796.38 | 788.38 | 780.17 | 771.67 | 762.82 | 3.184 | 2.271 | 1.617 | 1.237 | 0.857
x1 = 0.7166 | 797.83 | 789.9 | 781.76 | 773.35 | 764.6 | 3.395 | 2.417 | 1.732 | 1.32 | 0.921
x1 = 0.8005 | 799.06 | 791.18 | 783.1 | 774.76 | 766.09 | 3.594 | 2.547 | 1.837 | 1.394 | 0.979
x1 = 0.9001 | 800.47 | 792.65 | 784.64 | 776.38 | 767.81 | 3.838 | 2.709 | 1.963 | 1.483 | 1.051

CC(C)CO [2-methyl-1-propanol] + CCCO
Details | mass density, 293.15 K [kg/m3] | mass density, 303.15 K [kg/m3] | mass density, 313.15 K [kg/m3] | mass density, 323.15 K [kg/m3] | mass density, 333.15 K [kg/m3] | viscosity, 293.15 K [mPa·s] | viscosity, 303.15 K [mPa·s] | viscosity, 313.15 K [mPa·s] | viscosity, 323.15 K [mPa·s] | viscosity, 333.15 K [mPa·s]
x1 = 0.1038 | 803.39 | 795.39 | 787.25 | 778.91 | 770.34 | 2.147 | 1.586 | 1.079 | 0.835 | 0.508
x1 = 0.1962 | 803.24 | 795.27 | 787.16 | 778.85 | 770.31 | 2.269 | 1.657 | 1.14 | 0.88 | 0.545
x1 = 0.2944 | 803.09 | 795.15 | 787.07 | 778.79 | 770.27 | 2.413 | 1.744 | 1.21 | 0.93 | 0.588
x1 = 0.4058 | 802.91 | 795.01 | 786.96 | 778.71 | 770.2 | 2.594 | 1.855 | 1.297 | 0.991 | 0.641
x1 = 0.504 | 802.75 | 794.88 | 786.86 | 778.62 | 770.13 | 2.768 | 1.967 | 1.382 | 1.052 | 0.693
x1 = 0.6041 | 802.58 | 794.74 | 786.74 | 778.52 | 770.04 | 2.961 | 2.099 | 1.487 | 1.126 | 0.753
x1 = 0.7019 | 802.41 | 794.59 | 786.61 | 778.41 | 769.94 | 3.172 | 2.253 | 1.611 | 1.217 | 0.83
x1 = 0.8072 | 802.21 | 794.41 | 786.45 | 778.26 | 769.8 | 3.452 | 2.448 | 1.767 | 1.335 | 0.928
x1 = 0.8996 | – | 794.24 | 786.29 | 778.11 | 769.64 | – | 2.643 | 1.914 | 1.446 | 1.018

Source: the NIST ThermoML archive (doi:10.1021/je3011634)
